Where two headings read alike, the source gives them in different places. One block for each compound: values may come before it.
Columns and labels:
ICE = molecular target: T1, ICE (Homo sapiens, UniProt P29466); assay: Enzyme assay with UV-visible substrate (visible ICE assay, Succinyl-Tyr-Val-Ala-Asp-pNitroanilide); type: biochemical
T1 sequence (P29466 120-297 limits assumed): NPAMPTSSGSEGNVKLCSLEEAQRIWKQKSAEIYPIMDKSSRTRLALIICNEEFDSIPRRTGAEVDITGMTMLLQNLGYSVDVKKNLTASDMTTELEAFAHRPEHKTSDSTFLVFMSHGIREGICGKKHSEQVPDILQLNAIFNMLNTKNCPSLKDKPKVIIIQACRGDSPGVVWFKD
T1 sequence (P29466 317-404 limits assumed): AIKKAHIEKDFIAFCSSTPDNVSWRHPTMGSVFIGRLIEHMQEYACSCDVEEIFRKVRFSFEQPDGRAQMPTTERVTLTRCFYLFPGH
How it was run: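 Read-out is the rate of pNA chromophore release (mOD/min, linear fit) monitored at 405-603 nm over 20 min at 37° C. Substrate was succinyl-Tyr-Val-Ala-Asp-pNitroanilide, added after a 15 min room-temperature preincubation of ICE with inhibitor.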

[1] = test system: IL-1β, human peripheral blood mononuclear cells (PBMC); assay: PBMC cell assay: IL-1β assay with human PBMC or enriched adherent mononuclear cells, LPS-stimulated; type: cell-based; conditions: Homo sapiens, PBMC
From the text: IL-1β Assay with a Mixed Population of Human Peripheral Blood Mononuclear Cells (PBMC) or Enriched Adherent Mononuclear Cells
Processing of pre-IL-1β by ICE can be measured in cell culture using a variety of cell sources. Human PBMC obtained from healthy donors provides a mixed population of lymphocyte subtypes and mononuclear cells that produce a spectrum of interleukins and cytokines in response to many classes of physiological stimulators. Adherent mononuclear cells from PBMC provides an enriched source of normal monocytes for selective studies of cytokine production by activated cells.
An initial dilution series of test compound in DMSO or ethanol is prepared, with a subsequent dilution into RPMI-10% FBS media (containing 2 mM L-glutamine, 10 mM HEPES, 50 U and 50 ug/ml pen/strep) respectively to yield drugs at 4× the final test concentration containing 0.4% DMSO or 0.4% ethanol. The final concentration of DMSO is 0.1% for all drug dilutions. A concentration titration which brackets the apparent Ki for a test compound determined in an ICE inhibition assay is generally used for the primary compound screen.
Generally 5-6 compound dilutions are tested and the cellular component of the assay is performed in duplicate, with duplicate ELISA determinations on each cell culture supernatant.
PBMC Isolation and IL-1 Assay:
Buffy coat cells isolated from one pint human blood (yielding 40-45 ml final volume plasma plus cells) are diluted with media to 80 ml and LeukoPREP separation tubes (Becton Dickinson) are each overlaid with 10 ml of cell suspension. After 15 min centrifugation at 1500-1800×g, the plasma/media layer is aspirated and then the mononuclear cell layer is collected with a Pasteur pipette and transferred to a 15 ml conical centrifuge tube (Corning). Media is added to bring the volume to 15 ml, gently mix the cells by inversion and centrifuge at 300×g for 15 min. Resuspend the PBMC pellet in a small volume of media, count cells and adjust to 6×10^6 cells/ml.
For the cellular assay, 1.0 ml of the cell suspension is added to each well of a 24-well flat bottom tissue culture plate (Corning), 0.5 ml test compound dilution and 0.5 ml LPS solution (Sigma #L-3012; 20 ng/ml solution prepared in complete RPMI media; final LPS concentration 5 ng/ml). The 0.5 ml additions of test compound and LPS are usually sufficient to mix the contents of the wells. Three control mixtures are run per experiment, with either LPS alone, solvent vehicle control, and/or additional media to adjust the final culture volume to 2.0 ml. The cell cultures are incubated for 16-18 hr at 37° C. in the presence of 5% CO2.
At the end of the incubation period, cells are harvested and transferred to 15 ml conical centrifuge tubes. After centrifugation for 10 min at 200×g, supernatants are harvested and transferred to 1.5 ml Eppendorf tubes. It may be noted that the cell pellet may be utilized for a biochemical evaluation of pre-IL-1β and/or mature IL-1β content in cytosol extracts by western blotting or ELISA with pre-IL-1β specific antisera.
Isolation of Adherent Mononuclear Cells:
PBMC are isolated and prepared as described above. Media (1.0 ml) is first added to wells followed by 0.5 ml of the PBMC suspension. After a one hour incubation, plates are gently shaken and nonadherent cells aspirated from each well. Wells are then gently washed three times with 1.0 ml of media and final resuspended in 1.0 ml media. The enrichment for adherent cells generally yields 2.5−3.0×10^5 cells per well. The addition of test compounds, LPS, cell incubation conditions and processing of supernatants proceeds as described above.
We have used Quantikine kits (R&D Systems) for measurement of mature IL-1β. Assays are performed according to the manufacturer's directions. Mature IL-1β levels of about 1-3 ng/ml in both PBMC and adherent mononuclear cell positive controls are observed. […]

IL-1β, human whole blood = assay: Whole blood assay for IL-1β production; type: cell-based; conditions: Homo sapiens, read-out: Whole human blood IC50
Procedure: The whole blood assay is a simple method for measuring the production of IL-1b (or other cytokines) and the activity of potential inhibitors. The complexity of this assay system, with its full complement of lymphoid and inflammatory cell types, spectrum of plasma proteins and red blood cells is an ideal in vitro representation of human in vivo physiologic conditions.
Pyrogen-free syringes (˜30 cc) Pyrogen-free sterile vacuum tubes containing lyophilized Na2EDTA (4.5 mg/10 ml tube) Human whole blood sample (˜30-50 cc) 1.5 ml eppendorf tubes Test compound stock solutions (˜25 mM in DMSO or other solvent) Endotoxin-free sodium chloride solution (0.9%) and HBSS Lipopolysaccharide (Sigma; Cat. # L-3012) stock solution at 1 mg/ml in HBSS
IL-1β ELISA Kit (R & D Systems; Cat # DLB50)
TNFα ELISA Kit (R & D Systems; Cat # DTA50)
Whole Blood Assay Experimental Procedure:
Set incubator or water bath at 30° C. Aliquot 0.25 ml of blood into 1.5 ml eppendorf tubes. Note: be sure to invert the whole blood sample tubes after every two aliquots. Differences in replicates may result if the cells sediment and are not uniformly suspended. Use of a positive displacement pipette will also minimize differences between replicate aliquots.
Prepare drug dilutions in sterile pyrogen-free saline by serial dilution. A dilution series which brackets the apparent Ki for a test compound determined in an ICE inhibition assay is generally used for the primary compound screen.
Add 25 μl test compound dilution or vehicle control and gently mix the sample. Then add 5.0 μl LPS solution (250 ng/ml stocked prepared fresh: 5.0 ng/ml final concentration LPS), and mix again. Incubate the tubes at 30° C. in a water bath for 16-18 hr with occasional mixing. Alternatively, the tubes can be placed in a rotator set at 4 rpm for the same incubation period. This assay should be set up in duplicate or triplicate with the following controls: negative control—no LPS; positive control—no test inhibitor; vehicle control—the highest concentration of DMSO or compound solvent used in the experiment. Additional saline is added to all control tubes to normalize volumes for both control and experimental whole blood test samples
After the incubation period, whole blood samples are centrifuged for 10 minutes at ˜2000 rpm in the microfuge, plasma is transferred to a fresh microfuge tube and centrifuged at 1000×g to pellet residual platelets if necessary. Plasma samples may be stored frozen at −70° C. prior to assay for cytokine levels by ELISA.
We have used R & D Systems (614 McKinley Place N.E. Minneapolis, Minn. 55413) Quantikine kits for measurement of IL-1β and TNF-α. The assays are performed according to the manufacturer's directions.
We have observed IL-1β levels of ˜1-5 ng/ml in positive controls among a range of individuals. A 1:200 dilution of plasma for all samples has been sufficient in our experiments for ELISA results to fall on the linear range of the ELISA standard curves. It may be necessary to optimize standard dilutions if you observe differences in the whole blood assay. Nerad, J. L. et al., J. Leukocyte Biol., 52, pp. 687-692 (1992).

[2] = * = values obtained upon reassay

SMILES: CC(=O)Nc1c(Cl)cc(C(=O)N[C@H]2CN(C(=O)CO)c3ccccc3N(CC(=O)N[C@H](C=O)CC(=O)O)C2=O)cc1Cl [Compound 915]
Ki (ICE; Table 17): 11.5 nM
IC50 ([1]; Table 17): > 8000 nM
IC50 (IL-1β, human whole blood; Table 17): 1900 nM

SMILES: O=C[C@H](CC(=O)O)NC(=O)CN1C(=O)[C@@H](NC(=O)c2ccc3c(c2)OCO3)CN(C(=O)CO)c2ccccc21 [Compound 910]
Ki (ICE; Table 17): 10 nM
IC50 ([1]; Table 17): 3400 nM
IC50 (IL-1β, human whole blood; Table 17): 3800 nM

SMILES: O=C[C@H](CC(=O)O)NC(=O)CN1C(=O)[C@@H](NC(=O)c2ccc3[nH]cnc3c2)CN(C(=O)CO)c2ccccc21 [Compound 920]
Ki (ICE; Table 17): 16 nM
IC50 ([1]; Table 17): 2100 nM
IC50 (IL-1β, human whole blood; Table 17): 3000 nM

SMILES: Nc1ccc(C(=O)N[C@H]2CN(C(=O)CO)c3ccccc3N(CC(=O)N[C@H](C=O)CC(=O)O)C2=O)cc1Cl [Compound 686]
Ki (ICE; Table 17): 4 nM
IC50 ([1]; Table 17): 4000 nM
IC50 (IL-1β, human whole blood; Table 17): 9000 nM

SMILES: Cc1cc(C(=O)N[C@H]2CN(C(=O)COc3ccccc3)c3ccccc3N(CC(=O)N[C@H](C=O)CC(=O)O)C2=O)cc(C)c1O [Compound 721]
Ki (ICE; Table 27): 1.3 nM
IC50 (IL-1β, human whole blood; Table 27): 5000 nM

SMILES: COc1c(Cl)cc(C(=O)N[C@H]2CN(C(=O)CO)c3ccccc3N(CC(=O)N[C@H](C=O)CC(=O)O)C2=O)cc1Cl [Compound 918]
Ki (ICE; Table 17): 7 nM
IC50 (IL-1β, human whole blood; Table 17): 1150 nM

SMILES: COc1c(Cl)cc(C(=O)N[C@H]2CN(C(C)=O)c3ccccc3N(CC(=O)N[C@H](C=O)CC(=O)O)C2=O)cc1Cl [Compound 669, (3S)-3-[(3S)-2-Oxo-3-(3,5-dichloro-4-methoxybenzoyl)amino-5-acetyl-2,3,4,5-tetrahydro-1H-1,5-benzodiazepine-1-acetylamino]-4-oxo-butyric acid]
Ki (ICE; Table 17): 14 nM
IC50 (IL-1β, human whole blood; Table 17): 10000 nM

SMILES: CC(=O)N1C[C@H](NC(=O)c2ccccc2)C(=O)N(CC(=O)N[C@H](C=O)CC(=O)O)c2c(C)cc(C)cc21 [Compound 605o, (3S)-3-[(3S)-2-Oxo-3-benzoylamino-5-acetyl-2,3,4,5-tetrahydro-7,9-dimethyl-1H-1,5-benzodiazepin-1-acetylamino]-4-oxo-butyric acid]
Ki (ICE; Table 5): 72 nM
IC50 (IL-1β, human whole blood; [2]): 18000 nM

SMILES: Nc1c(Cl)cc(C(=O)N[C@H]2CN(C(=O)CO)c3ccccc3N(CC(=O)N[C@H](C=O)CC(=O)O)C2=O)cc1Cl [Compound 697]
Ki (ICE; Table 27): 1.8 nM
IC50 (IL-1β, human whole blood; Table 27): 5000 nM

SMILES: CCC(=O)N1C[C@H](NC(=O)c2cc(C)c(O)c(C)c2)C(=O)N(CC(=O)N[C@H](C=O)CC(=O)O)c2ccccc21 [Compound 724]
Ki (ICE; Table 27): 2 nM
IC50 (IL-1β, human whole blood; Table 27): 1800 nM

SMILES: COC(=O)N1C[C@H](NC(=O)c2cc(C)c(O)c(C)c2)C(=O)N(CC(=O)N[C@H](C=O)CC(=O)O)c2ccccc21 [Compound 723]
Ki (ICE; Table 27): 2.3 nM
IC50 (IL-1β, human whole blood; Table 27): 2000 nM

SMILES: COc1cc(C(=O)N[C@H]2CN(C(=O)CO)c3ccccc3N(CC(=O)N[C@H](C=O)CC(=O)O)C2=O)ccc1O [Compound 733]
Ki (ICE; Table 27): 5 nM
IC50 (IL-1β, human whole blood; Table 27): 1500 nM

SMILES: CC(=O)N[C@@H](CC(=O)O)C(=O)N[C@H]1CN(C(=O)CO)c2ccccc2N(CC(=O)N[C@H](C=O)CC(=O)O)C1=O [Compound 730]
Ki (ICE; Table 27): 90 nM
IC50 (IL-1β, human whole blood; Table 27): 8000 nM

More lines, main results first:

Ki (ICE; Table 5): 45 nM
IC50 (IL-1β, human whole blood; [2]): 4000 nM
SMILES: Cc1cc(C(=O)N[C@H]2CCC(=O)N3CCC[C@@H](C(=O)N[C@H](C=O)CC(=O)O)N3C2=O)no1 [Compound 424]
IC50 [1, 2]: 2500 nM

Ki (ICE; Table 5): 0.9 nM
IC50 (IL-1β, human whole blood; [2]): 1900 nM
SMILES: O=C[C@H](CC(=O)O)NC(=O)[C@@H]1CCCN2C(=O)CC[C@H](NC(=O)c3ccc4ccccc4n3)C(=O)N12 [Compound 411]
IC50 [1, 2]: 540 nM

Ki (ICE; Table 17): 250 nM
IC50 (IL-1β, human whole blood; Table 17): 3000 nM
SMILES: O=C[C@H](CC(=O)O)NC(=O)[C@@H]1CCCN2C(=O)CCN(NC(=O)CCc3ccccc3)C(=O)N12 [Compound 1105]
IC50 ([1]; Table 17): 3500 nM

Ki (ICE; Table 5): 7 nM
IC50 (IL-1β, human whole blood; [2]): 2500 nM
SMILES: Cc1c(O)cccc1C(=O)N[C@H]1CCC(=O)N2CCC[C@@H](C(=O)N[C@H](C=O)CC(=O)O)N2C1=O [Compound 476]
IC50 [1, 2]: 1600 nM

IC50 (IL-1β, human whole blood; [2]): 1700 nM
SMILES: COc1cccc2oc(C(=O)[C@H](CC(=O)O)NC(=O)[C@@H]3CCCN4C(=O)CC[C@H](NC(=O)CCc5ccccc5)C(=O)N34)nc12 [Compound 135b]
IC50 [1, 2]: 1600 nM

Ki (ICE; Table 5): 135 nM
IC50 (IL-1β, human whole blood; [2]): 4000 nM
SMILES: O=C[C@H](CC(=O)O)NC(=O)[C@@H]1CCCN2C(=O)CC[C@H](NC(=O)c3ncc[nH]3)C(=O)N12 [Compound 445]

Ki (ICE; Table 5): 130 nM
IC50 (IL-1β, human whole blood; [2]): 4000 nM
SMILES: CC(=O)N(C)c1ccc(C(=O)N[C@H]2CCC(=O)N3CCC[C@@H](C(=O)N[C@H](C=O)CC(=O)O)N3C2=O)cc1 [Compound 448]

IC50 (IL-1β, human whole blood; Table 17): 10000 nM
SMILES: CC(=O)N[C@H]1CCC(=O)N2CCC[C@@H](C(=O)N[C@@H](CC(=O)O)C(=O)COc3cccnc3)N2C1=O [Compound 283d, [3S(1S,9S)]3-(9-Acetamido-6,10-dioxo-1,2,3,4,7,8,9,10-octahydro-6H-pyridazino[1,2-a][1,2]diazepine-1-carboxamido)-4-oxo-5-(3-pyridyloxy)pentanoic acid]
IC50 ([1]; Table 17): > 8000 nM
